Calls of active or inactive are those of the source. The rule behind the calls is not given here.
Columns and labels:
[1] = target: Cyclin-dependent kinase 7 (Homo sapiens, UniProt P50613); experiment: Inhibition of CDK7 (unknown origin)
[2] = target: Dual specificity protein kinase CLK2 (Homo sapiens, UniProt P49760); experiment: Inhibition of CLK2 (unknown origin)
[3] = target: Dual specificity protein kinase CLK4 (Homo sapiens, UniProt Q9HAZ1); experiment: Inhibition of CLK4 (unknown origin)
[4] = target: Dual specificity protein kinase CLK1 (Homo sapiens, UniProt P49759); experiment: Inhibition of CLK1 (unknown origin)
Sequence of Dual specificity protein kinase CLK1 (P49759 whole entry, canonical isoform): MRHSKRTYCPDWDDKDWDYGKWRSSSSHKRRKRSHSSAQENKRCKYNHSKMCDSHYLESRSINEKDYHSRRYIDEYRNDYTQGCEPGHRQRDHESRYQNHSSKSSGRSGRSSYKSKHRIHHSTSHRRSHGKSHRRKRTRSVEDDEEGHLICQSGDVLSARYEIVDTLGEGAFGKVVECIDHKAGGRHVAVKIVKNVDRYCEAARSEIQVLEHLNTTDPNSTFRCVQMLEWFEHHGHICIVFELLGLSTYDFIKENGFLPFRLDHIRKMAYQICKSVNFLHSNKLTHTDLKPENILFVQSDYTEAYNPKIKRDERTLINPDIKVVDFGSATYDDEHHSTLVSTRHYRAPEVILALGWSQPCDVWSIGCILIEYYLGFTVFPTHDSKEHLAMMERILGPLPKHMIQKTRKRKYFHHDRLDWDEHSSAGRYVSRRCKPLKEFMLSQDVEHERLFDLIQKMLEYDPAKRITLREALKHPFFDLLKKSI

[5] = target: Casein kinase I isoform epsilon (Homo sapiens, UniProt P49674); experiment: Inhibition of CK1epsilon (unknown origin)
Sequence of Casein kinase I isoform epsilon (P49674 whole entry, canonical isoform): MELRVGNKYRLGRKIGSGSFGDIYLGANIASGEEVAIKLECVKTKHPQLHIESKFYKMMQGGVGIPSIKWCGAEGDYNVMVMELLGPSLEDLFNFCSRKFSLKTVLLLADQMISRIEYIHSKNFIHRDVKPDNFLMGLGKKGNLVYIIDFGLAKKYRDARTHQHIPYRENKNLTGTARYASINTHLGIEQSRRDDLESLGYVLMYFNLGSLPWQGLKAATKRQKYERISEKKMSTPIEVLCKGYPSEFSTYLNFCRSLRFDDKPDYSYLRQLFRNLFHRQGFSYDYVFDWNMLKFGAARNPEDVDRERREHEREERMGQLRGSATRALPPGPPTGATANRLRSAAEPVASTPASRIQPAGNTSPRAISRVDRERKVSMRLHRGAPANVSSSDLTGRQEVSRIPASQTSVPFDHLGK

[6] = target: Dual specificity tyrosine-phosphorylation-regulated kinase 1A (Homo sapiens, UniProt Q13627); experiment: Inhibition of DYRK1A (unknown origin)
[7] = test system: K562; experiment: Antiproliferative activity against human K562 cells assessed as reduction in cell viability measured for 48 hrs by MTT assay; assay type: functional, cell-based; settings: K562, 48 h
[8] = test system: HepG2; experiment: Antiproliferative activity against human HepG2 cells assessed as reduction in cell viability measured for 48 hrs by MTT assay; assay type: functional, cell-based; settings: HepG2, 48 h
[9] = test system: HCT-116; experiment: Antiproliferative activity against human HCT-116 cells assessed as reduction in cell viability measured for 48 hrs by MTT assay; assay type: functional, cell-based; settings: HCT-116, 48 h
[10] = test system: MCF7; experiment: Antiproliferative activity against human MCF7 cells assessed as reduction in cell viability measured for 48 hrs by MTT assay; assay type: functional, cell-based; settings: MCF7, 48 h
[11] = test system: MGC-803; experiment: Antiproliferative activity against human MGC-803 cells assessed as reduction in cell viability measured for 48 hrs by MTT assay; assay type: functional, cell-based; settings: MGC-803, 48 h
[12] = test system: A549; experiment: Antiproliferative activity against human A549 cells assessed as reduction in cell viability measured for 48 hrs by MTT assay; assay type: functional, cell-based; settings: A549, 48 h
[13] = test system: NCI-H1299; experiment: Antiproliferative activity against human NCI-H1299 cells assessed as reduction in cell viability measured for 48 hrs by MTT assay; assay type: functional, cell-based; settings: NCI-H1299, 48 h
[14] = test system: HT-29; experiment: Antiproliferative activity against human HT-29 cells assessed as reduction in cell viability measured for 48 hrs by MTT assay; assay type: functional, cell-based; settings: HT-29, 48 h
[15] = test system: PC-3; experiment: Antiproliferative activity against human PC-3 cells assessed as reduction in cell viability measured for 48 hrs by MTT assay; assay type: functional, cell-based; settings: PC-3, 48 h
[16] = test system: MDA-MB-231; experiment: Antiproliferative activity against human MDA-MB-231 cells assessed as reduction in cell viability measured for 48 hrs by MTT assay; assay type: functional, cell-based; settings: MDA-MB-231, 48 h
[17] = test system: MDA-MB-468; experiment: Antiproliferative activity against human MDA-MB-468 cells assessed as reduction in cell viability measured for 48 hrs by MTT assay; assay type: functional, cell-based; settings: MDA-MB-468, 48 h
[18] = Antiproliferative activity against human HUVEC cells assessed as reduction in cell viability measured for 48 hrs by MTT assay; assay type: toxicity, cell-based
[19] = Antiproliferative activity against human HEK293 cells assessed as reduction in cell viability measured for 48 hrs by MTT assay; assay type: toxicity, cell-based
[20] = test system: MDA-MB-231; experiment: Antiproliferative activity against human MDA-MB-231 cells assessed as reduction in viability at 4 uM incubated for 7.5 hrs by MTT assay; assay type: functional
[21] = test system: MDA-MB-231; experiment: Antiproliferative activity against human MDA-MB-231 cells assessed as reduction in viability at 10 uM incubated for 7.5 hrs by MTT assay; assay type: functional
[22] = test system: MDA-MB-231; experiment: Induction of apoptosis in human MDA-MB-231 cells assessed as formation of apoptotic bodies at 4 uM incubated for 6 hrs; assay type: functional, cell-based
[23] = test system: MDA-MB-231; experiment: Induction of apoptosis in human MDA-MB-231 cells assessed as change in cell shape at 4 uM incubated for 12 to 24 hrs; assay type: functional, cell-based; settings: time 12-24 hrs
[24] = test system: MDA-MB-231; experiment: Induction of apoptosis in human MDA-MB-231 cells assessed as increase in number of apoptotic bodies at 4 uM incubated for 48 hrs; assay type: functional, cell-based
[25] = test system: MDA-MB-231; experiment: Induction of apoptosis in human MDA-MB-231 cells assessed as increase in number of cell debris at 4 uM incubated for 48 hrs; assay type: functional, cell-based
[26] = test system: MDA-MB-231; experiment: Induction of apoptosis in human MDA-MB-231 cells assessed as apoptotic cells at 4 uM incubated for 12 hrs by Annexin V-FITC/PI staining based analysis; assay type: functional
[27] = test system: MDA-MB-231; experiment: Induction of apoptosis in human MDA-MB-231 cells assessed as apoptotic cells at 4 uM incubated for 24 hrs by Annexin V-FITC/PI staining based analysis; assay type: functional
[28] = test system: MDA-MB-231; experiment: Induction of apoptosis in human MDA-MB-231 cells assessed as apoptotic cells at 4 uM incubated for 48 hrs by Annexin V-FITC/PI staining based analysis; assay type: functional
[29] = test system: MDA-MB-231; experiment: Induction of apoptosis in human MDA-MB-231 cells assessed as apoptotic cells at 40 uM incubated for 12 hrs by Annexin V-FITC/PI staining based analysis; assay type: functional
[30] = test system: MDA-MB-231; experiment: Induction of apoptosis in human MDA-MB-231 cells assessed as apoptotic cells at 40 uM incubated for 24 hrs by Annexin V-FITC/PI staining based analysis; assay type: functional
[31] = test system: MDA-MB-231; experiment: Induction of apoptosis in human MDA-MB-231 cells assessed as apoptotic cells at 40 uM incubated for 48 hrs by Annexin V-FITC/PI staining based analysis; assay type: functional
[32] = test system: MDA-MB-231; experiment: Induction of ROS generation in human MDA-MB-231 cells assessed as increase in intracellular ROS level at 40 uM incubated for 48 hrs by DCFH-DA staining based fluorescence microscopic analysis (Rvb=41.4%); assay type: functional
[33] = test system: Cell membrane; experiment: Induction of mitochondrial membrane potential loss in human MDA-MB-231 cells assessed as increase in fluorescence intensity at 40 uM incubated for 48 hrs by TMRM dye based flow cytometry analysis (reference value: 97.5%)
[34] = test system: MDA-MB-231; experiment: Inhibition of cell migration human MDA-MB-231 cells assessed as migration distance at 25 uM incubated for 24 hrs by wound healing assay (reference value: 642.72 micrometer); assay type: functional
[35] = test system: MDA-MB-231; experiment: Inhibition of cell migration human MDA-MB-231 cells assessed as migration distance at 25 uM incubated for 48 hrs by wound healing assay (reference value: 642.72 micrometer); assay type: functional
[36] = test system: MDA-MB-231; experiment: Inhibition of cell migration human MDA-MB-231 cells at 0.01 to 0.4 uM incubated for 20 hrs by DAPI staining based analysis; assay type: functional; settings: dose 0.01-0.4 µM
[37] = test system: HUVEC; experiment: Antiangiogenesis activity in HUVEC cells at 62.5 nM incubated for 12 hrs by microscopic analysis; assay type: functional, cell-based; settings: Homo sapiens
[38] = test system: HUVEC; experiment: Antiangiogenesis activity in HUVEC cells at 0.03 to 0.3 uM incubated for 12 hrs by microscopic analysis; assay type: functional, cell-based; settings: Homo sapiens, dose 0.03-0.3 µM
[39] = test system: MDA-MB-231; experiment: Antitumor activity against human MDA-MB-231 cells xenografted in nude mouse assessed as reduction in tumor growth at 10 to 20 mg/kg, ip measured for 3 days; assay type: functional, organism-based; settings: dose 10-20 mg/kg, time 3.0 day
[40] = Toxicity in nude mouse xenografted with human MDA-MB-231 cells assessed as change in body weight at 10 to 20 mg/kg, ip measured for 3 days; assay type: organism-based; settings: in vivo, 72 h, dose 10-20 mg/kg, time 3 day
[41] = test system: MDA-MB-231; experiment: Antitumor activity against human MDA-MB-231 cells xenografted in nude mouse assessed as decrease in tumor size at 10 to 20 mg/kg, ip measured for 3 days; assay type: functional, organism-based; settings: dose 10-20 mg/kg, time 3.0 day
[42] = test system: MDA-MB-231; experiment: Antitumor activity against human MDA-MB-231 cells xenografted in nude mouse assessed as inhibition of proliferation of tumor cells at 10 mg/kg, ip measured for 3 days by H and E staining based analysis; assay type: functional, organism-based; settings: time 3.0 day
[43] = test system: MDA-MB-231; experiment: Antitumor activity against human MDA-MB-231 cells xenografted in nude mouse assessed as inhibition of spleen metastasis in tumor at 10 mg/kg, ip measured for 3 days; assay type: functional, organism-based; settings: time 3.0 day
[44] = test system: MDA-MB-231; experiment: Antitumor activity against human MDA-MB-231 cells xenografted in nude mouse assessed as inhibition of lung metastasis in tumor at 10 mg/kg, ip measured for 3 days; assay type: functional, organism-based; settings: time 3.0 day
[45] = Hepatotoxicity in nude mouse at 10 mg/kg, ip measured for 3 days; assay type: toxicity, organism-based; settings: in vivo, 72 h, time 3 day
[46] = test system: MDA-MB-231; experiment: Antitumor activity against human MDA-MB-231 cells xenografted in nude mouse assessed as decrease in Ki67 expression at 10 mg/kg, ip measured for 3 days by immunohistochemistry analysis; assay type: functional, organism-based; settings: time 3.0 day
[47] = test system: MDA-MB-231; experiment: Antitumor activity against human MDA-MB-231 cells xenografted in nude mouse assessed as decrease in CD31 expression at 10 mg/kg, ip measured for 3 days by immunohistochemistry analysis; assay type: functional, organism-based; settings: time 3.0 day

Sequence of Cyclin-dependent kinase 7 (P50613 whole entry): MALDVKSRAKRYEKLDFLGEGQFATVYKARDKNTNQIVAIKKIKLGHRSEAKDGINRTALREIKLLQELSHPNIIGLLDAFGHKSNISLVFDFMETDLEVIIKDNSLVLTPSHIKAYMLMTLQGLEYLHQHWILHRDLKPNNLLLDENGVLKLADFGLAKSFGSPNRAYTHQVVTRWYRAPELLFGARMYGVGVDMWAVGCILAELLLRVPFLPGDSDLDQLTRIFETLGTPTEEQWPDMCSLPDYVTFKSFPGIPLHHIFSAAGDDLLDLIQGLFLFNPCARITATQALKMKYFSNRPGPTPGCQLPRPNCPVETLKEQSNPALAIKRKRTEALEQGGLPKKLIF
Sequence of Dual specificity protein kinase CLK2 (P49760 whole entry): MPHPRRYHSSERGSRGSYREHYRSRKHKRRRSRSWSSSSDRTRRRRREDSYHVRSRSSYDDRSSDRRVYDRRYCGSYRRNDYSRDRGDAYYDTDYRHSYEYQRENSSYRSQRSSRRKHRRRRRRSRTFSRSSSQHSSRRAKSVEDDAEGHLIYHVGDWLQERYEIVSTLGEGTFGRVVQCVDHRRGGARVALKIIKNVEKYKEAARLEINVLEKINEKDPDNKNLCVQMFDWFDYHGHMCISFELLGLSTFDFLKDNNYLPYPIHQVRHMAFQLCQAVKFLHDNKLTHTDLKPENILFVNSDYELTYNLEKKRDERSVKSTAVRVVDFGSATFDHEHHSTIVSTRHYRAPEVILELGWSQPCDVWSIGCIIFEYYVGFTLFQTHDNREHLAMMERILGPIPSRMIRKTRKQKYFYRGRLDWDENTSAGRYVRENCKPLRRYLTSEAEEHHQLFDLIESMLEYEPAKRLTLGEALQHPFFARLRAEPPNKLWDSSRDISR
Sequence of Dual specificity protein kinase CLK4 (Q9HAZ1 whole entry): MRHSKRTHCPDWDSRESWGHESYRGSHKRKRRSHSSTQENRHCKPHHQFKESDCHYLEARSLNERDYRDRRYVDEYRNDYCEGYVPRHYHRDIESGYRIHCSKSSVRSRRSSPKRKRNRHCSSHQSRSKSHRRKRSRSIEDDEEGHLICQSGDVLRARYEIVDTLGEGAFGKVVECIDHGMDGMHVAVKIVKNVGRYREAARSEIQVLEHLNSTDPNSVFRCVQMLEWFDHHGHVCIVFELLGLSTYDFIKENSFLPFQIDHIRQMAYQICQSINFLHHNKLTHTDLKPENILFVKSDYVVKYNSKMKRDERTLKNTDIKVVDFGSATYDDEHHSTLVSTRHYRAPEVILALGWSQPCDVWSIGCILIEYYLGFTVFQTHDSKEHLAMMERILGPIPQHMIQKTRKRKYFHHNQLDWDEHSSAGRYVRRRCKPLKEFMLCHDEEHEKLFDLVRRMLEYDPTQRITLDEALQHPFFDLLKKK

OCCN1CCC(C2CCN(c3nc(NCc4cccc(F)c4F)c4ncn(C5CCCC5)c4n3)CC2)CC1
IC50 [1]: 390 nM
IC50 [2]: 23 nM
IC50 [3]: 73 nM
IC50 [4]: 278 nM
IC50 [5]: 38 nM
IC50 [6]: 122 nM
IC50 [7]: 240 nM
IC50 [8]: 250 nM
IC50 [9]: 2790 nM
IC50 [10]: 2670 nM
IC50 [11]: 3.52 µM
IC50 [12]: 370 nM
IC50 [13]: 4.05 µM
IC50 [14]: 3.37 µM
IC50 [15]: 3.92 µM
IC50 [16]: 3.55 µM
IC50 [17]: 3.69 µM
IC50 at 48 h [18]: 6.18 µM
IC50 at 48 h [19]: 4.28 µM
Activity [20]: ~100%
Activity [21]: ~100%
Activity [22]: Active
Activity [23]: Active
Activity [24]: Active
Activity [25]: Active
Activity [26]: 5.6%
Activity [27]: 13%
Activity [28]: 54.9%
Activity [29]: >95%
Activity [30]: >95%
Activity [31]: >95%
Activity [32]: 48.6%
Activity [33]: 80.9%
Activity [34]: 24.88 um
Activity [35]: 53.38 um
inhibition [36]: Active
Activity [37]: Active
Activity [38]: Active
Activity [39]: Active
Activity [40]: Non-Toxic
Activity [41]: Active
Activity [42]: Active
Activity [43]: Active
Activity [44]: Active
Activity [45]: Non-Toxic
Activity [46]: Active
Activity [47]: Active
